Legend:
[1] = Partition coefficients (log P), n-octanol/water, modified shake-flask technique with UV quantitation; type: physicochemical; conditions: n-octanol and water (1:1, v/v)
Procedure: Partition coefficients (log P) were measured by determining the distribution of the test compound between a presaturated mixture of n-octanol and water (1:1, v/v). The analytical method consisted of a modified shake-flask technique and ultraviolet (UV) spectrometry quantitation after centrifugal separation of the two phases. The concentration of the test compound in the octanol phase prior to distribution was 0.5 mM. The dihydropyridine chromophore (λmax=360 nm) was used for quantitative UV analysis of IVDU-CDS and IVFRU-CDS, for which the results are shown in Table 1.

[2] = Stability of the preferred compounds; conditions: comparison among preferred compounds
[3] = Pseudo-first order oxidation of the 1-methyl-1,4-dihydropyridine-CDS in mouse blood, brain homogenate and liver homogenate; type: in vitro ADME; conditions: 37° C.; for k, oxidation rate, brain / t1/2, oxidation, brain: 20% mouse brain homogenate; for k, oxidation rate, blood / t1/2, oxidation, blood: 50% mouse blood
Procedure: Pseudo-first order rate constants and half-lives for the oxidation of IVDU-CDS and IVFRU-CDS were determined in 50% mouse blood, 20% mouse brain homogenate and 20% mouse liver homogenate. A solution of the test compound in DMSO (10 Mm) was added to each matrix and incubated at 37° C. At various times after test compound addition, an aliquot was removed and added to acetonitrile (100 μL). The samples were immediately centrifuged and the supernatant was analyzed by quantitative reverse phase HPLC. The rate of disappearance of the 1-methyl-1,4-dihydropyridine-CDS was determined by UV detection at 360 nm.

[4] = system: KBALB-STK cells that express HSV-1 TK; assay: In vitro cellular uptake of radiopharmaceuticals in transduced or non-transduced sarcoma cell lines; type: cell-based; conditions: KBALB-STK cells relative to KBALB or KBALB-LNL cells, 37° C.
Procedure: The KBALB sarcoma models used in these studies are derived by exposing wild-type KBALB cells to Moloney murine leukemia virus (MMLV) producer cell supernatants containing replication incompetent ecotropic retroviruses. […] These transduced cell lines are cultured in media containing the antibiotic G-418 to select for those cells expressing the neomycin resistance gene.
KBALB-STK, KBALB-LNL, or wild type KBALB cells were grown to confluency in 24 well culture plates. [^125I]-IVDU (sp. act.=12 Gbq/mmol), [^125I]-1VFRU (sp. act.=11 Gbq/mmol), [^131′I]-IVDU-CDS (sp. act.=2.8 Gbq/mmol) or [^131I]-IVFRU-CDS (sp. act.=4.3 Gbq/mmol) were added to each well in 100 μL saline solution and incubated at 37° C. At varying times after exposure to the test compound, the supernatant was removed, the cells rinsed with saline, and the adherent cells were then trypsinized prior to their removal. Cellular uptake -was determined by gamma counting using a Beckmann 8000 gamma counter.

[5] = system: KBALB-STK tumors expressing HSV-1 TK; assay: Scintigraphic imaging of KBALB-STK tumors; type: in vivo, mice; conditions: 8 hours after administration
Procedure: (§1) BALB-STK cells (1×10^5 cells) were injected subcutaneously into the flank of 12 Balb-c mice. All inoculated animals developed palpable tumors suitable for imaging after 14 days at which time the tumors were approximately 10 mm in diameter. Static images were obtained following injection of 3.7 Mbq of [^131I]-VFRU (sp. act.=252 Gbq/mmol) via the tail vein. Animals were placed in the prone position under a pinhole collimator using a Searle gamma camera (Scintiview) with data manipulated on an ADAC computer (DPS 3300). Images were acquired over 15 minutes using a 256×256 matrix. After initial imaging, a group of animals (n=6) were administered an intraparietoneal (ip) injection of ganciclovir (100 mg/kg) once daily for seven consecutive days. The control group (n=6) received daily saline injections. After four days, the animals were administered [^131I]-IVFRU as described previously and imaging was performed using the same acquisition protocol described above. It was noted that the treatment group tumor size had shrunk to an average size of less than 5 mm. […] The tumors in the saline administered control animals continued to grow until termination of the experiment. […] The scintigram, presented as FIG. 7, is for the same animal 8 hours after [^131I]-IVFRU administration following 4 days of ganciclovir treatment.

KBALB tumors = assay: Biodistribution in mice bearing wild type KBALB tumors; type: in vivo; conditions: relative to KBALB-STK tumors
Procedure: (§2) KBALB or KBALB-STK cells (1×10^5 cells) were injected subcutaneously into the flank of male Balb-c mice. Palpable tumors appeared 14 days after injection. [^131I]-IVFRU (370 KBq, sp. act. 59 Gbq/mmol) was injected via the tail vein into each tumor bearing animal. Three animals were sacrificed and dissected at each time interval. The radioactivity uptake by selected tissues of interest were determined using a Beckman 8000 gamma counter. Tissue uptake is expressed as a percentage of the administered dose per gram of tissue versus time in FIGS. 3 and 4. The tumor to blood ratio is presented for both tumor models in FIG. 5.

KBALB-STK tumors [6] = assay: Biodistribution in mice bearing KBALB-STK tumors; type: in vivo
Procedure: as §2

HSV-1 TK = HSV-1 TK (Human herpesvirus 1, UniProt P0DTH5); assay: Substrate property for the gene expression product HSV-1 TK; type: biochemical, herpes simplex virus type 1
HSV-1 TK, sequence (P0DTH5 whole entry): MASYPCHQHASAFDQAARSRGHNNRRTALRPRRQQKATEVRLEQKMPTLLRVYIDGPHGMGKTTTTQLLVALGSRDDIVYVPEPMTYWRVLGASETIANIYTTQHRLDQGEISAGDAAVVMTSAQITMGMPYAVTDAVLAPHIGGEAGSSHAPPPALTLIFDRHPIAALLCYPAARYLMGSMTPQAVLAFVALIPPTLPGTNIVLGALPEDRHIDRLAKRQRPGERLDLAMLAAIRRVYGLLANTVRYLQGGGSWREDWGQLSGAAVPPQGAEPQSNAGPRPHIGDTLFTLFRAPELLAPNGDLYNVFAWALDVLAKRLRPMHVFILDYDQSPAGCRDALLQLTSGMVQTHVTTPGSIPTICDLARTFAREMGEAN

KBALB-STK tumors [7] = assay: Ganciclovir treatment of mice bearing KBALB-STK tumors; type: in vivo; conditions: 100 mg/kg ip once daily
Procedure: as §1

## O=c1[nH]c(=O)n([C@H]2C[C@H](O)[C@@H](CO)O2)cc1/C=C/I [IVDU, (E)-5-(2-iodovinyl)-2′-deoxyuridine]
[1]
  logP: 1.1
[2]
  stability: less stable than IVFRU, IVFAU and IVAU

## CN1C=CCC(C(=O)O[C@H]2C[C@H](n3cc(/C=C/I)c(=O)[nH]c3=O)O[C@@H]2CO)=C1 [IVDU-CDS, (E)-5-(2-iodovinyl)-3′-O-(1-methyl-1,4-dihydropyridyl-3-carbonyl)-2′-deoxyuridine]
[1]
  log P: 1.77
[3]
  k, oxidation rate, brain: 0.00961 min⁻¹
  t1/2, oxidation, brain: 1.2 h
  k, oxidation rate, blood: 0.00522 min⁻¹
  t1/2, oxidation, blood: 2.22 h
[3]; 20% mouse liver homogenate
  k, oxidation rate, liver: 0.01081 min⁻¹
[2]
  stability: more stable

## O=c1[nH]c(=O)n([C@@H]2O[C@H](CO)[C@@H](O)[C@H]2F)cc1/C=C/I [IVFRU, (E)-5-(2-iodovinyl)-2′-fluoro-2′-deoxyuridine]
[1]
  logP: 1.21

## CN1C=CCC(C(=O)O[C@H]2[C@@H](F)[C@H](n3cc(/C=C/I)c(=O)[nH]c3=O)O[C@@H]2CO)=C1 [IVFRU-CDS, (E)-5-(2-iodovinyl)-3′-O-(1-methyl-1,4-dihydropyridyl-3-carbonyl)-2′-fluoro-2′-deoxyuridine]
[1]
  log P: 1.83
[3]
  k, oxidation rate, brain: 0.0031 min⁻¹
  t1/2, oxidation, brain: 3.72 h
  k, oxidation rate, blood: 0.0027 min⁻¹
  t1/2, oxidation, blood: 4.27 h
[3]; 20% mouse liver homogenate
  k, oxidation rate, liver: 0.00531 min⁻¹
  t1/2, oxidation, liver: 2.17 h

## O=c1[nH]c(=O)n([C@@H]2O[C@H](CO)[C@@H](O)[C@@H]2F)cc1C=C[125I] [[^125I]-IVFRU]
[4]
  cellular uptake: selective uptake

## O=c1[nH]c(=O)n([C@H]2C[C@H](O)[C@@H](CO)O2)cc1C=C[125I] [[^125I]-VDU]
[4]
  cellular uptake: selective uptake

## O=c1[nH]c(=O)n(C2OC(CO)C(O)C2F)cc1/C=C/[131I] (stereo not shown) [[^131I]-IVFRU, [^131I]-(E)-5-(2-iodovinyl)-2′-fluoro-2′-deoxyuridine]
[5]; following 4 days of ganciclovir treatment
  activity in region of the shrinking tumor remnant (scintigram): relatively devoid of activity
[5]; prior to ganciclovir treatment
  uptake into tumor (scintigram): selective uptake
KBALB tumors; all time points
  tumor/blood ratios: much lower
KBALB tumors
  tumor radioactivity: significantly less
KBALB-STK tumors [6]; KBALB-STK tumors, 8 hours post injection, tail vein
  peak tumor/blood ratio: approximately 3
KBALB-STK tumors [6]; tumors expressing HSV-1 TK
  tumor uptake: Preferential tumor uptake

## O=c1[nH]c(=O)n([C@@H]2O[C@H](CO)[C@@H](O)[C@H]2F)cc1/C=C/[123I] [^123I-IVFRU]
HSV-1 TK
  substrate for HSV-1 TK: substrate

## Nc1nc(O)c2ncn(COC(CO)CO)c2n1 [ganciclovir]
KBALB-STK tumors [7]; after 7 days of treatment, all treated animals
  tumor response: completely regressed
KBALB-STK tumors [7]; after four days, tumors approximately 10 mm at start
  average tumor size: less than 5 mm
